Patent US20170226541A1, “METHOD OF IMPROVING SOLVENT TOLERANCE IN MICROBES” (Nanyang Technological University, priority 2014, published 2017)
Entries after “also recorded” stand apart in the source; their conditions may differ.

Legend:
[1] = tested on: E. coli K12; assay: Butanol challenge, microdilution growth test; assay type: cell-based, Escherichia coli K12 (ATTC 10798); settings: for protective effect on growth under butanol challenge: 0 to 3.5% (v/v) butanol, DSSN+ 5 μM
Protocol: Butanol challenge was assessed by using a microdilution format modified standard toxicity test based on the method described by Wiegand et al (I. Wiegand, K. Hilpert, R. E. W. Hancock, Nat. Protocols 2008, 3, 163-175). Cultures of E. coli K12 (ATTC 10798) grown in LB broth were harvested at late log phase and diluted to 1×10^6 cfu ml. One hundred μl of the suspension were inoculated into 96 well plates with each well containing an equal volume of LB broth and spiked with the following concentrations of 1-butanol: […] in a 96 well plate achieving a final inoculum density of 5×10^5 and a final butanol concentration of 0, 0.85, 1.75, and 3.5% (v/v). Tests were run in triplicate with and without COE1-5C (10 μM) and DSSN+ (5 μM) using the appropriate sterility and growth controls. Specific growth rates were expressed as an average of all replicates.

[2] = tested on: E. coli K12 cells; assay: Modified microbial adhesion to hydrocarbon (MATH) test; assay type: cell-based, Escherichia coli K12
Protocol: To test for cell surface modifications brought about by COE1-5C that might affect hydrophobicity, E. coli K12 cells treated with COE1-5C (10 μM) were tested for their affinity for either the butanol or aqueous phase against an untreated control. The tendency of E. coli to partition into the butanol phase or remain in the aqueous phase was assessed optically by measuring the reduction in turbidity (OD600) of tubes containing a saturated mixture of butanol (1.5 ml) and buffer (18.5 ml). The tests were carried out with appropriate blanks and both positive and negative controls. MATH tests were carried out in triplicate and expressed as the quotient of the difference between the OD600 at the start and […] and the OD600 at the […].

[3] = Single molecule tracking of DHPE-Atto647N in supported lipid bilayer; design: species or system E. coli; settings: for effect on MSD / bilayer stiffness (comparison of OPV COEs): no butanol, OPV COE final concentration 1 μM (FIG. 4)
Protocol: SLB formation, MIM treatment: A 3 mg/ml chloroform solution of total E. coli lipid extract (Avanti Polar Lipids, Alabaster, Ala.) was mixed with DHPE-Atto647N (Atto-Tec, Slegen, Germany) to 0.001% mol in a round bottom flask produce large unilamellar vesicles (LUVs). Chloroform was evaporated using a rotary evaporator for 2 hours at 65° C. The lipid film was resuspended in 10 mM HEPES and 150 mM NaCl, pH 7.4, vortexed for 10 min and sonicated in a bath sonicator until a clear solution was obtained. One hundred μl of such a prepared LUVs solution were deposited in a custom made plastic holder, glued to a coverslip, and incubated for 60 min at 65° C. Prior to use, coverslips were cleaned by 30 min sonication in 2% Hellmanex (Hellma Analytics, Millheim, Germany), followed by thorough rinsing with deionized (DI) water. Un-fused vesicles were removed by 10× washing with 400 μl of 10 mM Hepes, 150 mM NaCl, 3 mM EDTA, pH 7.4 buffer. Calculated volumes of COE1-5C, DSSN+, DSBN+ and 4F-DSBN+ (0.1 mM) were added directly to the chamber to final concentrations of 1 μM, mixed and allowed to equilibrate for 5 min prior to measurement.
Data acquisition: For total internal reflection microscopy (TIRF) imaging, a modified Nikon Eclipse TE2000U TIRF setup was used, equipped with a 100× 1.49NA objective (Nikon, Japan). Laser light from a 638 nm LED laser was passed through a 660LP dichromic mirror (Chroma Technology Corp, Bellows Falls, Vt.) and used for sample illumination under the TIR angle. Emitted light was filtered using a 738/75 […] and collected on a back-illuminated EMCCD camera chip (Andor iXON897, 512x512px, Andor Technology, USA). For each condition, 4 to 6 datasets of 4000 frames at 97 fps were collected from different regions of the membrane. Immobile particles and contaminants were bleached prior to measurement.
Data analysis: A Mosaic Particle Tracker ImageJ plugin was used to localize the centroid of single molecule signals and link them to trajectories. TrackArt software was used to filter spurious trajectories and extract mean square displacements and diffusion coefficients. […] The slowly-diffusing population occurs most likely due to marker interaction with the surface.

[4] = tested on: E. coli K12; assay: Toxicity tests (minimum inhibitory concentration); assay type: cell-based, Escherichia coli K12
Source text: Relative toxicities of DSSN+ and DSBN+ are positively correlated with the extent of mismatch between the length of the hydrophobic molecular backbone and bilayer thickness. Membrane insertion of the shorter, 3-ringed DSBN+ thinned the membrane more than the 4-ringed DSSN+, perturbing it to a greater extent, and was correspondingly more toxic. In this example, the objective is to mitigate the toxic effect of organic solvents on biological membranes. To avoid synergistic membrane disruption in systems containing both MIMs and solvents, MIMs that were the least likely to perturb membranes, that is, DSSN+×(which was previously shown to maintain the natural thickness of membranes) and COE1-5C, were selected. The insertion of COE1-5C, whose molecular length (≈5 nm) is greater than the thickness of the bilayer (≈4 nm), would be expected to initiate membrane perturbation because of hydrophobic mismatch. However, positive hydrophobic mismatch perturbs lipid bilayers less than instances of negative mismatch—where the length of the insertion molecules is shorter than the thickness of the bilayer. The experimental concentration of COE1-5C used in this study (10 μM) is much lower than its minimum inhibitory concentration (MIC). […] This is considerably greater than for DSSN+, DSBN+ and 4F-DSBN+, further supporting the hypothesis that membrane thinning is a potent toxicity determinant. […]

[5] = tested on: E. coli K12; assay: Membrane polarisation (DiSC3 fluorescence); assay type: cell-based, Escherichia coli K12; settings: 10 μM COE1-5C; 0, 1.75 or 3.5% (v/v) 1-butanol
Protocol: Cultures of E. coli K12 grown in LB broth were harvested at late log phase and diluted to 5×10^5 cfu ml. Cells were centrifuged at 5000×g for 5 min and washed in phosphate buffered saline (PBS). The process was repeated three times and the pellet finally resuspended in PBS. Two-hundred μl of the cell suspension were inoculated into 96 well plates, 2 μL of the depolarization detecting probe 3,3-diethylthiodicarbocyanine (DiSC3) iodide was added to the treatment wells and to half of these, 10 μM COE1-5C. The cells were allowed to incubate for around 30 min and the fluorescence intensity at 670 nm was measured after excitation at 620 nm until a stable base line was reached. Zero, 1.75, or 3.5% (v/v) 1-butanol was added to the test well and the increase in fluorescence intensity was taken at 1 min intervals (Ex=λ620, Em=Δ670) as a bottom reading with optimal gain to determine the degree of membrane polarization. Buffer, dye, and COE1-5C blanks were monitored and the data corrected accordingly.

## C[N+](C)(C)CCCCCCN(CCCCCC[N+](C)(C)C)c1ccc(C=Cc2ccc(C=Cc3ccc(C=Cc4ccc(C=Cc5ccc(N(CCCCCC[N+](C)(C)C)CCCCCC[N+](C)(C)C)cc5)cc4)cc3)cc2)cc1.[I-].[I-].[I-].[I-] [COE1-5C]
[1]; COE1-5C 10 μM
  protective effect on growth under butanol challenge: increased the growth rate of E. coli K12 in all instances of butanol challenge; also recorded: mitigates the toxic effect of butanol
[1]; 3.5% v/v butanol
  growth rate of treated cells relative to untreated cells (fold): threefold increase
  growth rate relative to a control: about 13%
[1]; 3.5% v/v butanol, COE1-5C 10 μM, listed as conjugated oligo-electrolyte
  specific growth rate: 0.095 h⁻¹
[1]; 3.5% v/v butanol, listed as OPV COE
  growth rate of treated cells relative to untreated cells (fold): three times
[1]; 3.5% v/v butanol, listed as conjugated oligo-electrolyte
  growth rate of treated cells relative to untreated cells (fold): 3
[2]; 10 μM COE1-5C
  tendency of treated cells to partition into the butanol phase relative to untreated cells: less than half that of untreated cells
[2]; E. coli K12 treated with 10 μM COE1-5C, butanol/buffer partitioning, OD600
  MATH value: 0.17 (±0.027)
[3]; 0% (v/v) butanol
  reduction in MSD of membrane marker: 62%
[3]; 10 μM COE1-5C, 0.85, 1.75, 3.50% v/v butanol (FIG. 2)
  diffusion coefficients in model membranes versus control: much lower than in control systems
[3]; 0.85% (v/v) butanol
  reduction in MSD of membrane marker: 38%
[3]; 1.75% (v/v) butanol
  reduction in MSD of membrane marker: 22%
[3]; 3.5% v/v butanol
  reduction in MSD of membrane marker: 15%
[3]
  effect on MSD / bilayer stiffness (comparison of OPV COEs): increased bilayer stiffness to the greatest degree
[4]
  minimum inhibitory concentration (MIC): 128 µM
[5]
  membrane depolarization by butanol: mitigated the depolarization efficiency of butanol

## C[N+](C)(C)CCCCCCN(CCCCCC[N+](C)(C)C)c1ccc(/C=C/c2c(F)c(F)c(/C=C/c3ccc(N(CCCCCC[N+](C)(C)C)CCCCCC[N+](C)(C)C)cc3)c(F)c2F)cc1.[I-].[I-].[I-].[I-] [4F-DSBN+, reference compound]
[3]
  effect on MSD / bilayer stiffness (comparison of OPV COEs): stiffened the least amount

## C[N+](C)(C)CCCCCCN(CCCCCC[N+](C)(C)C)c1ccc(/C=C/c2ccc(/C=C/c3ccc(/C=C/c4ccc(N(CCCCCC[N+](C)(C)C)CCCCCC[N+](C)(C)C)cc4)cc3)cc2)cc1.[I-].[I-].[I-].[I-] [DSSN+, reference compound]
[1]; COE1-5C 10 μM
  protective effect on growth under butanol challenge: no protective effect; also recorded: no growth of E. coli K12 was observed
[1]; COE1-5C 10 μM, listed as DSSN^+
  protective effect on growth under butanol challenge: do not
[3]
  effect on MSD / bilayer stiffness (comparison of OPV COEs): to a lesser degree than the five-ringed structure

## C[N+](C)(C)CCCCCCN(CCCCCC[N+](C)(C)C)c1ccc(/C=C/c2ccc(/C=C/c3ccc(N(CCCCCC[N+](C)(C)C)CCCCCC[N+](C)(C)C)cc3)cc2)cc1.[I-].[I-].[I-].[I-] [DSBN+, reference compound]
[3]
  effect on MSD / bilayer stiffness (comparison of OPV COEs): to a lesser degree than the five-ringed structure
